We go through nine molecules from patent publication US9289509B2, “Uses of immunoconjugates targeting CD138” (Biotest AG, priority 2009, dated 2016).

For one series, the system named is MOLP8. Briefly: Combination with BT062 in cell lines (Chou and Talalay median effect analysis). To be noted: MOLP8 cells. The series is classed as cell-based, human.
In series [1] the test system is MOLP8 multiple myeloma cells. Briefly: MOLP8 xenograft: BT062 and VELCADE combination therapy. To be noted: for Fractional tumor volume (FTV): Velcade alone, dosed days 1, 4, 8 and 11. The series is classed as in vivo, mouse.
The conditions of series [2]: cited from earlier work.
Series [3] has as its system MOLP-8 human multiple myeloma xenografts. Briefly: MOLP-8 xenograft in CB.17 SCID mice, single bolus iv (Xenograft Mouse Experiments A, Part I). The series is classed as in vivo. Particulars: nBT062 […], all others 250 μg/kg (maytansinoid). As to the method: The conjugates were evaluated in a CD138-positive xenograft model (MOLP-8) of human multiple myeloma in severe combined immunodeficient (SCID) mice.
In these mice, subcutaneous tumors were established (female CB.17 SCID mice) by inoculation with MOLP-8 cell suspensions. Treatment with a single bolus intravenous injection was conducted when tumor volumes reached an average 113 mm^3. Changes in tumor volume and body weight were monitored twice per week.
Each mouse was inoculated with 1×10^7 MOLP-8 cells subcutaneously into the area under the right shoulder. The total volume was 0.2 ml per mouse, in which the ratio of serum-free medium to matrigel (BD Bioscience, Bedford, Mass.) was 1/1 (v/v). Prior to treatment, the xenograft tumors were monitored daily and were allowed to become established.
Eleven days after tumor cell inoculation, 42 mice were selected based on tumor volumes and body weights. […] The forty-two mice were randomly divided into seven groups (A-G) of six animals each based on tumor volume.
Each of six mice in Group A received 200 μl of PBS as vehicle control.
All agents were intravenously administered as a single bolus injection through a lateral tail vein with a 1 ml syringe fitted with a 27 gauge, ½ inch needle.

A further series concerns RPMI 8226. Briefly: Combination with BT062 in cell lines (Chou and Talalay median effect analysis). The series is classed as cell-based. To be noted: RPMI 8226 cells. How it is done:
Combination studies in xenograph mouse models were preceded by studies in cell lines. […] Here, IC50 values for the cytotoxic effects for each drug and each cell line are calculated, and then IC50 ratios for each drug pair. The cells were then exposed to dilution series of either these drug mixtures, or the drugs alone. Experimental data were analyzed using the CompuSyn software (ComboSyn, Inc., Paramus, N.J.). Combination Indexes (CI) for each independent experiment were calculated and reported separately. In the analysis, CI less than 1, equal to 1 and more than 1 indicates synergy, additivity and antagonism, respectively. According to the classification of T. C.

The next series relates to MOLP-8 tumor xenografts. Particulars: 450 μg/kg dose; mean time to reach 160 mm^3 minus control.
Series [4] deals with CD56-positive multiple myeloma. To be noted: 1 patient each at 60, 90 and 112 mg/m^2/week; heavily pretreated; cited from earlier work.
[5] abbreviates: Velcade 1 mg/kg days 1, 4, 8, 11.

Take `CC(C)C[C@H](NC(=O)[C@H](Cc1ccccc1)NC(=O)c1cnccn1)B(O)O` [Velcade, reference compound]: the “estimate of synergy, drug combined with BT062” value (from here on “estimate of synergy”) with MOLP8 (listed as Bortezomib) is given as “Slightly antagonistic”. Moreover, in the series with MOLP8 (listed as bortezomib), the “estimate of synergy” value is on record as “antagonistic effect”. Further, the “effect on tumor volume” value in series [1] (VELCADE treatment alone (FIG. 29)) was “no effect on the tumor volume”. For the same molecule, in series [1] (setting [5]), the “(T-C)” value came to 0.5 days, the “Regressions Complete” value was 0/6, the “Regressions Partial” value is 0/6 and the Result result is reported as “Inactive”. For the same molecule, in series [1] (setting [5]), the “T/C (%)” value worked out at 100%, the “Tumor free survivors day 67” value was 0/6 and the log cell kill was found to be 0.0. Moreover, the “Fractional tumor volume (FTV)” value in series [1] (day 14) is 0.84. In addition, the “Fractional tumor volume (FTV)” value in series [1] (day 18) turned out to be 0.96. Moreover, in series [1] (day 21), the “Fractional tumor volume (FTV)” value is on record as 0.80. In series [1] (day 25), the “Fractional tumor volume (FTV)” value came to 0.95. For the same molecule, the “combination effect with BT062 in xenograft model” value in series [1] (day 25, all BT062 dose regimens) is recorded as “synergistic”.
With `COc1cc2cc(c1Cl)N(C)C(=O)C[C@H](OC(=O)[C@H](C)N(C)C(C)=O)[C@]1(C)O[C@H]1[C@H](C)[C@@H]1C[C@@](O)(NC(=O)O1)[C@H](OC)/C=C/C=C(\C)C2` [maytansine], the “cytotoxicity relative to Vinca alkaloids or taxol” value in series [2] (higher than anti-cancer drugs in clinical use that affect tubulin polymerization) is given as 200-1000 fold.
Regarding B-B4-SPP-DM1 [reference compound], in series [3], the “effect on tumor growth” value is “marked delay in tumor growth”.
For the molecule `COc1cc2cc(c1Cl)N(C)C(=O)C[C@H](OC(=O)[C@H](C)N(C)C(=O)CCC(C)(C)S)[C@]1(C)O[C@H]1[C@H](C)[C@@H]1C[C@@](O)(NC(=O)O1)[C@H](OC)/C=C/C=C(\C)C2` [DM4, N^2′-deacetyl-N^2′-(4-methyl-4-mercapto-1-oxopentyl)-maytansine, reference compound], in series [3], the “effect on tumor growth” value is listed as “did not cause any significant inhibition of tumor growth”.
With `Nc1cccc2c1CN(C1CCC(=O)NC1=O)C2=O` (centres unmarked) [Lenalidomide], the “estimate of synergy” value in the series on RPMI 8226 is given as “Synergistic”.
With nBT062-DM1, the “TGD (tumor growth delay)” value in the series on MOLP-8 tumor xenografts is reported as 18 days.
Consider `O=C1CCC(N2C(=O)c3ccccc3C2=O)C(=O)N1` (stereo not drawn) [Thalidomide, α-(N-phthalimido) glutarimide], for which the “estimate of synergy” value in the series on MOLP8 was “antagonistic effect”.
Consider `COc1cc2cc(c1Cl)N(C)C(=O)C[C@H](OC(=O)[C@H](C)N(C)C(=O)CCS)[C@]1(C)O[C@H]1[C@H](C)[C@@H]1C[C@@](O)(NC(=O)O1)[C@H](OC)/C=C/C=C(\C)C2` [DM1, N^2-deacetyl-N^2-(3-mercapto-1-oxopropyl)-maytansine], for which the “cytotoxicity relative to maytansine” value in series [2] (more cytotoxic than maytansine) is 3- to 10 fold.

B1: IMGN901 (conjugate, chains of the INN, looked up)
VH: QVQLVESGGGVVQPGRSLRLSCAASGFTFSSFGMHWVRQAPGKGLEWVAYISSGSFTIYYADSVKGRFTISRDNSKNTLYLQMNSLRAEDTAVYYCARMRKGYAMDYWGQGTLVTVSS
VL: DVVMTQSPLSLPVTLGQPASISCRSSQIIIHSDGNTYLEWFQQRPGQSPRRLIYKVSNRFSGVPDRFSGSGSGTDFTLKISRVEAEDVGVYYCFQGSHVPHTFGQGTKVEIK
modifications: mertansine (DM1) conjugate
Regarding B1, the “patients with confirmed minor response (MR)” value in series [4] was 3 patients.
